{
  "source": "paper PMC3100585",
  "about": "(The Annals of pharmacotherapy, 2010)",
  "key": {"mouse NR1I2": {"biological_target": "T1, mouse NR1I2 (Mus musculus, UniProt O54915)", "T1 sequence (O54915 1-431)": "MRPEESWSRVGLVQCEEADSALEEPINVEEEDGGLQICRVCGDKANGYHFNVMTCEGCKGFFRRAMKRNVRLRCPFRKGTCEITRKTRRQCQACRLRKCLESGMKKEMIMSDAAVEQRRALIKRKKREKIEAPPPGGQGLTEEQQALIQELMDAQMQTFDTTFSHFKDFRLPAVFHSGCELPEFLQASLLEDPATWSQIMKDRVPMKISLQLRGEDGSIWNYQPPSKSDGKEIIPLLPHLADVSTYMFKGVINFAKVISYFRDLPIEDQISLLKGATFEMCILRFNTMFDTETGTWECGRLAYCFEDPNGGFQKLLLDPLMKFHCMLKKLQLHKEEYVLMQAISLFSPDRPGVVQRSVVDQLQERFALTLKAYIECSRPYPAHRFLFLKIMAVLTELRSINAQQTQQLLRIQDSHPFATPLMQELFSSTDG", "assay": "Luciferase reporter gene assay, full-length mouse NR1I2", "assay_type": "cell-based", "conditions": "HepG2 cells, 24 hours; vinblastine 150-4800 ng/mL; PCN 50 μM"}, "human NR1I2": {"biological_target": "T2, human NR1I2 (Homo sapiens, UniProt O75469)", "T2 sequence (O75469 1-434)": "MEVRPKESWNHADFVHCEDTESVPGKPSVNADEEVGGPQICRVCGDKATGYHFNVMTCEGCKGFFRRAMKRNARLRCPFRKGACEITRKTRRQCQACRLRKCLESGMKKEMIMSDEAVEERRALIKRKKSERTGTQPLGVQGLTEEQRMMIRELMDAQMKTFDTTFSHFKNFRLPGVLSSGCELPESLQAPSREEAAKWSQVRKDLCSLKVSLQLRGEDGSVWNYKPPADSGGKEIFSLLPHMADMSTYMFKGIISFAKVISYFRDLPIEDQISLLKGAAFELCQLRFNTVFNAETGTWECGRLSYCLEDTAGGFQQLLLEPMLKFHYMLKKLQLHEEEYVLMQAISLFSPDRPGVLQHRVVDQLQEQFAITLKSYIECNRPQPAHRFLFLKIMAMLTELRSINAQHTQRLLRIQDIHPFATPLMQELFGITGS", "conditions": "HepG2 cells, 24 hours; vinblastine 150-4800 ng/mL; rifampin 10 μM"}, "human NR1I3": {"biological_target": "T3, human NR1I3 (Homo sapiens, UniProt Q14994)", "T3 sequence (Q14994 1-348 isoform Q14994-2)": "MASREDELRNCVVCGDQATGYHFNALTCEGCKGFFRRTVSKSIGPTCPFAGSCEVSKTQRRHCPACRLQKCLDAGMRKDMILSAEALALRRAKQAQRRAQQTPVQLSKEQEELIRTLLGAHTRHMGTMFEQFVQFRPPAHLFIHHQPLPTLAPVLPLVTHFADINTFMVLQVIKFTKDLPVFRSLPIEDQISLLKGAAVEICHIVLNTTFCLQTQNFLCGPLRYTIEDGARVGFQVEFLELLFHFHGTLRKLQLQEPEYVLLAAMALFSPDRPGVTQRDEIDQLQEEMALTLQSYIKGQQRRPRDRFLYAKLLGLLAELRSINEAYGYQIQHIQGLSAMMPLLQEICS", "T3 sequence (P28700 1-467 partner)": "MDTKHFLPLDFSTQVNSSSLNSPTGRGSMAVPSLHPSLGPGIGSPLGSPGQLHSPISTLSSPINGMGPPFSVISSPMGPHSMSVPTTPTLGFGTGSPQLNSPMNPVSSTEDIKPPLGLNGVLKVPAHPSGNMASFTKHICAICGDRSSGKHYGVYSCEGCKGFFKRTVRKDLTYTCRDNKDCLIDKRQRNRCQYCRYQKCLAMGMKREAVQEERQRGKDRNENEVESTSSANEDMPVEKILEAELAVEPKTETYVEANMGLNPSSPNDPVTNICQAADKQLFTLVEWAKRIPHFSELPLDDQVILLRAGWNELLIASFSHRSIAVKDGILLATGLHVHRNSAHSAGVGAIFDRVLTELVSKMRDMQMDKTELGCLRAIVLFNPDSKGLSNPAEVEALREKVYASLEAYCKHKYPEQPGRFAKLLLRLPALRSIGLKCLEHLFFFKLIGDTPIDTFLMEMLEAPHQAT", "conditions": "NIH3T3 cells, 24 hours; vinblastine 150-4800 ng/mL"}, "mouse NR1I3": {"biological_target": "T4, mouse NR1I3 (Mus musculus, UniProt O35627)", "T4 sequence (O35627 1-358)": "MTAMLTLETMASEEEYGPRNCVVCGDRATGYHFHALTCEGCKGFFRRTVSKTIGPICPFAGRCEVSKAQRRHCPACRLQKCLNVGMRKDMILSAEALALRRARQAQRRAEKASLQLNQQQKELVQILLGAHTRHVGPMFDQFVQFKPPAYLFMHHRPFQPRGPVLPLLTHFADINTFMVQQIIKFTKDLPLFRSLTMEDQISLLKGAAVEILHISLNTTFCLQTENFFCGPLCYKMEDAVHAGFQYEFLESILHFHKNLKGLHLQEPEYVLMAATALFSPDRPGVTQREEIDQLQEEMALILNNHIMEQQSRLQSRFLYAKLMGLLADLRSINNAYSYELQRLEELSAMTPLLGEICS", "conditions": "NIH3T3 cells, 24 hours; vinblastine 150-4800 ng/mL"}, "CYP3A4 [1]": {"tested_on": "CYP3A4", "conditions": "cited from earlier work"}, "[2]": {"tested_on": "CYP3A4 protein in HepG2 cells", "assay": "CYP3A4 protein expression by Western blot in HepG2 cells", "assay_type": "cell-based, human", "conditions": "48 hours, vinblastine 300 ng/mL and above (range 150-4800 ng/mL)"}, "CYP3A4 [3]": {"tested_on": "CYP3A4", "assay": "Midazolam pharmacokinetics", "conditions": "for Midazolam AUC, median (dose normalized): 6 patients; for half-life: human, plasma, intravenous, 0.0145 mg/kg, Half-life of midazolam, median"}},
  "note": "“And” between values parts separate entries of the source, which are not always exact repeats. Equal entries are not always repeated.",
  "data": [
    {"smiles": "C/C=C/C[C@@H](C)C(=O)[C@H]1C(=O)N[C@@H](C(C)C)C(=O)N(C)CC(=O)N(C)[C@@H](CC(C)C)C(=O)N[C@@H](C(C)C)C(=O)N(C)[C@@H](CC(C)C)C(=O)N[C@@H](C)C(=O)N[C@H](C)C(=O)N(C)[C@@H](CC(C)C)C(=O)N(C)[C@@H](CC(C)C)C(=O)N(C)[C@@H](C(C)C)C(=O)N1C", "note": "[valspodar]", "values": [
      {"measurement": "Increase in transcriptional (reporter) activity of mouse NR1I2", "setting": "mouse NR1I2", "result": "Increased activity of the reporter was not observed"},
      {"measurement": "Increase in transcriptional (reporter) activity of human NR1I2", "setting": "human NR1I2", "result": "Increased activity of the reporter was not observed"},
      {"measurement": "Effect on transcriptional activity of human NR1I3", "setting": "human NR1I3", "result": "Increased activity of the reporter was not observed"},
      {"measurement": "Effect on transcriptional activity of mouse NR1I3", "setting": "mouse NR1I3", "result": "Increased activity of the reporter was not observed"},
      {"measurement": "CYP3A4 inhibition", "setting": "CYP3A4 [1]", "result": "very weak CYP3A4 inhibitor"}
    ]},
    {"smiles": "CC[C@]1(O)C[C@@H]2CN(CCc3c([nH]c4ccccc34)[C@@](C(=O)OC)(c3cc4c(cc3OC)N(C)[C@H]3[C@@](O)(C(=O)OC)[C@H](OC(C)=O)[C@]5(CC)C=CCN6CC[C@]43[C@@H]65)C2)C1", "note": "[vinblastine, Vinblastine]", "values": [
      {"measurement": "CYP3A4 protein expression compared to DMSO-treated control cells", "setting": "[2]", "result": "substantially increased CYP3A4 protein expression"}
    ]},
    {"smiles": "Cc1ncc2n1-c1ccc(Cl)cc1C(c1ccccc1F)=NC2", "note": "[midazolam]", "values": [
      {"measurement": "Midazolam AUC, median (dose normalized)", "setting": "CYP3A4 [3]; day 1 of cycle 1", "result": 46.4, "unit": "ng·h/mL per mg"},
      {"measurement": "Midazolam AUC, median (dose normalized)", "setting": "CYP3A4 [3]; day 1 of cycle 4, after repeat vinblastine", "result": 31.0, "unit": "ng·h/mL per mg"},
      {"measurement": "half-life", "setting": "CYP3A4 [3]; day 1 of cycle 1", "result": 2.54, "unit": "h"},
      {"measurement": "half-life", "setting": "CYP3A4 [3]; day 1 of cycle 4", "result": 3.08, "unit": "h"},
      {"measurement": "% ↑ Midazolam Cl", "setting": "CYP3A4 [3]; individual patients, cycle 4 vs cycle 1, after repeat vinblastine", "result": "51.7% and 35.9% and 216.7% and 2.5% and 46.9% and 6.9%"},
      {"measurement": "Midazolam clearance relative to value prior to treatment with vinblastine", "setting": "CYP3A4 [3]; one patient, midazolam on 5 occasions over 1.3 years, end of period", "result": 3.6, "unit": "fold"}
    ]}
  ]
}
